# From BindingDB's records for doi:10.7270/Q2697202 (Nmmlsc, 2008)
# Biological target: Induced myeloid leukemia cell differentiation protein Mcl-1 (Homo sapiens, UniProt Q07820)
# Test: modulators of Bim peptide binding to Mcl-1, dose response, biochemical, bead-based flow cytometry, multiplexed, human (AID 1329)
# [1] = inactive by the depositor's call
# Induced myeloid leukemia cell differentiation protein Mcl-1, sequence (Q07820 whole entry): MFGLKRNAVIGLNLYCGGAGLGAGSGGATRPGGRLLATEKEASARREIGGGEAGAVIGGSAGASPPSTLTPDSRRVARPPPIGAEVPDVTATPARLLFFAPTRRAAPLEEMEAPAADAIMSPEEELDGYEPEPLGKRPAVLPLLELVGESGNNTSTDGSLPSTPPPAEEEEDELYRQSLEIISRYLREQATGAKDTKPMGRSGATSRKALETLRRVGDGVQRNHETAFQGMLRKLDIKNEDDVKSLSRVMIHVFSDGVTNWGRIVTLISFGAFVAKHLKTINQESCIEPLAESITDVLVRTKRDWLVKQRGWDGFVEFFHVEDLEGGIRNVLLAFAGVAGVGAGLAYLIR
Structure (SMILES),EC50 [1] [µM],EC50 [µM]
"O=C(CSc1ccc2nnc(-c3ccccn3)n2n1)Nc1nccs1 [2-[[3-(2-pyridinyl)-[1,2,4]triazolo[4,3-b]pyridazin-6-yl]thio]-N-(2-thiazolyl)acetamide]",11.8,–
"COc1ccc(C2=Nn3c(nnc3-c3ccco3)SC2)cc1OC [6-(3,4-Dimethoxy-phenyl)-3-furan-2-yl-7H-[1,2,4]triazolo[3,4-b][1,3,4]thiadiazine]",2.94,–
CCOCCCNc1nc(S)nc2cc(OC)c(OC)cc12,2.54,–
c1ccc(-c2nc(N3CCOCC3)[s+]n2-c2ccccc2)cc1,–,9.74
CCOCCCn1c(N)c(C(=O)Nc2sc3c(c2C(=O)OC)CCCC3)c2nc3ccccc3nc21,1.85,–
Nc1c(C(=O)NCC2CCCO2)sc2nc3c(c(-c4ccco4)c12)CC/C3=C\c1ccco1 (stereo unspecified) [SMR000259502],–,6
"O=C(/C=C/c1ccccc1Cl)c1ccccc(=O)c1O [3-[(E)-3-(2-chlorophenyl)prop-2-enoyl]-2-oxidanyl-cyclohepta-2,4,6-trien-1-one]",19.4,–
Nc1c(C(=O)NC2CC2)sc2nc3c(c(-c4ccco4)c12)CC/C3=C/c1ccco1 [SMR000259554],–,5.86
Cc1ccc(-c2nc(N3CCOCC3)s[n+]2-c2ccccc2)cc1 [SMR000225370],–,2.04
CCCCNc1[nH]c(=S)nc2cc(OC)c(OC)cc12 [MLS000520261],1.04,–
COc1ccc(-n2c(=O)c3ccccc3c3ccccc3c2=O)c(OC)c1,26.9,–
COc1cc2nc(=S)[nH]c(NCCc3ccc(S(N)(=O)=O)cc3)c2cc1OC [MLS000674601],0.36,–
"O=C(Nc1ccccc1)c1ccc2nc(-c3ccco3)c(-c3ccco3)nc2c1 [2,3-di-2-furyl-N-phenyl-6-quinoxalinecarboxamide]",39.6,–
Cc1cc2n(c1)CCn1c(C)ccc1-2 [MLS000104384],21,–
COc1ccc(/C=C/C(=O)c2cc(Br)ccc(=O)c2O)cc1 [MLS000702099],33.2,–
"O=C1/C(=C\c2ccc(-c3ccccc3Cl)o2)SC(=S)N1CC1CCCO1 (stereo unspecified) [(5E)-5-[[5-(2-chlorophenyl)furan-2-yl]methylidene]-3-(oxolan-2-ylmethyl)-2-sulfanylidene-1,3-thiazolidin-4-one]",2.14,–
COCCCn1c(N)c(C(=O)Nc2sc3c(c2C(=O)OC)CCCC3)c2nc3ccccc3nc21 [MLS000595323],3.12,–
C#CCn1cc(C=C2C(=O)c3ccccc3C2=O)c2ccccc21 [SMR000196125],16.3,–
COc1ccc(OC)c(-n2c(=O)c3ccccc3c3ccccc3c2=O)c1 [SMR000236434],16.7,–
Cc1cccc(OCC(=O)NCC(=O)NN=Cc2cc(Br)ccc2OCc2ccccc2)c1 [N-[(5-bromanyl-2-phenylmethoxy-phenyl)methylideneamino]-2-[2-(3-methylphenoxy)ethanoylamino]ethanamide],7.78,–
Cc1cc2nn(-c3cccc4ccccc34)nc2cc1N [SMR000076237],1.75,–
CCOC(=O)c1ccc(Nc2nc(C(=O)OCC)nc3ccccc23)cc1,4.52,–
O=C(/C=C\c1ccc(-c2ccccc2)o1)c1ccccc1 [(Z)-1-phenyl-3-(5-phenyl-2-furanyl)-2-propen-1-one],20.7,–
Cc1cc(-c2nnc3n2N=C(c2ccc(-c4ccccc4)cc2)CS3)[nH]n1 [MLS000082991],9.39,–
"COc1cc(C=NNC(=O)CN(Cc2ccco2)S(=O)(=O)c2ccccc2)ccc1O [N-(2-furanylmethyl)-N-[2-[[(E)-(3-methoxy-4-oxo-1-cyclohexa-2,5-dienylidene)methyl]hydrazo]-2-oxoethyl]benzenesulfonamide]",–,11.4

# The next lines start with the values.
EC50 [1] [µM],EC50 [µM],Structure (SMILES)
–,38.6,CN1CCc2cccc3c2[C@@H]1Cc1ccc(O)c(O)c1-3
–,29,"COc1cccc2c(SCC(=O)NN=Cc3ccc(O)cc3O)cc(C)nc12 [N'-[(E)-(2-hydroxy-4-oxo-1-cyclohexa-2,5-dienylidene)methyl]-2-[(8-methoxy-2-methyl-4-quinolinyl)thio]acetohydrazide]"
13.2,–,Cc1ccc(-c2ccc(/C=C/C(=O)c3ccccc3)o2)cc1
20.6,–,CN(N=Cc1cccnc1)C1=NS(=O)(=O)c2ccccc21 [SMR000207578]
2.61,–,Cc1ccc(C(=O)/C=C/c2ccc(-c3ccc(C)cc3)o2)cc1 [1-p-Tolyl-3-(5-p-tolyl-furan-2-yl)-propenone]
9.29,–,CCOC(=O)c1c(O)nc2ccc(Cl)c3c2c1-c1ccccc1C3=O [MLS000704595]
–,5.05,"COc1cc(CN=Nc2nn3cnnc3c3ccccc23)ccc1O [(4E)-2-methoxy-4-[[2-([1,2,4]triazolo[3,4-a]phthalazin-6-yl)hydrazinyl]methylidene]cyclohexa-2,5-dien-1-one]"
1.9,–,"COc1cc2nc(=S)[nH]c(NCC3CCCO3)c2cc1OC (stereo unspecified) [6,7-dimethoxy-4-(2-oxolanylmethylamino)-1H-quinazoline-2-thione]"
39.5,–,Cc1ccnc(SCc2cc(=O)c(OC(=O)c3ccc(Cl)c([N+](=O)[O-])c3)co2)n1 [MLS000696790]
7.11,–,"COCCNC(=S)Nc1cc(OC)c(OC)cc1C#N [1-(2-cyano-4,5-dimethoxy-phenyl)-3-(2-methoxyethyl)thiourea]"
5.71,–,Cc1ccc(C=NNC(=O)CSc2nnc(-c3ccc(Cl)cc3)n2-c2ccccc2)o1 [SMR000218122]
–,0.39,Cc1nc2ncccn2c1-c1csc(Nc2ccc(O)cc2)n1
10.9,–,O=C(Nc1ccc2nc(-c3ccco3)c(-c3ccco3)nc2c1)N1CCN(c2ccccn2)CC1
12.2,–,"c1ccc(Nc2cccc(Nc3ccccc3)n2)cc1 [N,N'-diphenyl-2,6-pyridinediamine]"
45.4,–,O=C(c1ccccc1)c1ccc2nc(-c3ccco3)c(-c3ccco3)nc2c1
5.53,–,"CN(N=C/C=C/c1ccccc1)C1=NS(=O)(=O)c2ccccc21 [(1E,2E)-3-phenylacrylaldehyde (1,1-dioxido-1,2-benzisothiazol-3-yl)(methyl)hydrazone]"
–,41.2,CCN1/C(=C/C(C)=C/c2sc3ccccc3[n+]2CC)Sc2ccccc21 [SMR000354813]
16,–,COc1ccc(C)cc1-n1c(=O)c2ccccc2c2ccccc2c1=O [MLS000682999]

EC50 [1] [µM],EC50 [µM],Structure (SMILES)
8.97,–,"Cc1nc2ncccn2c1-c1csc(Nc2ccccc2)n1 [4-(2-methyl-3-imidazo[1,2-a]pyrimidinyl)-N-phenyl-2-thiazolamine]"
2.74,–,"CN(N=Cc1ccncc1)C1=NS(=O)(=O)c2ccccc21 [isonicotinaldehyde (1,1-dioxido-1,2-benzisothiazol-3-yl)(methyl)hydrazone]"
14.7,–,CCOC(=O)c1nc(Nc2ccc(C(=O)OC)cc2)c2ccccc2n1 [ethyl 4-(4-methoxycarbonylanilino)quinazoline-2-carboxylate]
–,19.3,CCC(/C=C1\Sc2ccc(OC)cc2N1CCO)=C\c1sc2ccc(OC)cc2[n+]1CCO
15.8,–,CCN1C(=O)/C(=C/C=C2\C=CN(CC)c3ccccc32)SC1=S
7.82,–,"O=C(NCc1ccccc1)c1ccc2nc(-c3ccco3)c(-c3ccco3)nc2c1 [2,3-bis(furan-2-yl)-N-(phenylmethyl)quinoxaline-6-carboxamide]"
69.7,–,O=C1c2ccccc2-c2onc3ccc(N4CCCC4)c1c23 [SMR000279741]
10.5,–,Fc1ccc(C2=Nc3cccc4cccc(c34)N2)cc1 [MLS000687139]
5.92,–,"Cc1cc(C)nc(SCc2cc(=O)c(OC(=O)c3ccc(Cl)c([N+](=O)[O-])c3)co2)n1 [4-chloro-3-nitrobenzoic acid [6-[[(4,6-dimethyl-2-pyrimidinyl)thio]methyl]-4-oxo-3-pyranyl] ester]"
–,5.76,Cc1nnc2ccc(-c3cccc(NC(=O)c4ccco4)c3)nn12 [SMR000324305]
20.9,–,O=S1(=O)N=C(N(CCO)N=C/C=C/c2ccccc2)c2ccccc21
0.7,–,CN1CCN(C2=C(Cl)C(=O)C(c3cnc(N4CCCCC4)s3)=C(Cl)C2=O)CC1
1.74,–,COCCCNc1nc(S)nc2cc(OC)c(OC)cc12 [SMR000026607]
16.9,–,Clc1nc(NCc2cccnc2)nc(N2CCOCC2)n1 [MLS000121154]
16.7,–,"Cc1ccnc(Nc2nc(-c3c(C)nc4sccn34)cs2)c1 [[4-(6-Methyl-imidazo[2,1-b]thiazol-5-yl)-thiazol-2-yl]-(4-methyl-pyridin-2-yl)-amine]"
3.71,–,CN(C)c1ncc(C2=C(Cl)C(=O)C(N3CCCC3)=C(Cl)C2=O)s1
4.54,–,COCCNc1[nH]c(=S)nc2cc(OC)c(OC)cc12
6.14,–,COc1cc2nc(=S)n(CCCN3CCOCC3)c(N)c2cc1OC
